These results are taken from patent US10316054B2, “Preparation and use of crystalline beta-D-nicotinamide riboside” (GlaxoSmithKline Intellectual Property (No. 2) Limited, priority 2014, dated 2019).

Structures are written as SMILES. A value given as a limit tells only on which side of the number the result lay.

Data set [1] in a line: Behaviour of the solid on filtration under ambient conditions / ambient humidity. It is filed as physicochemical. The method, then:
Crude product (351 g) from the above example was dissolved in 1.5 L of methanol, then 625 mL of methanol was removed in vacuo. For the initial crystallization experiments, this solution was placed in a glass round-bottomed flask, and the side was scratched with a metal spatula. The solution was then stored at −20° C. for several weeks until a crystalline precipitate formed. […] For subsequent preparations, the methanol solution was seeded with 100 mg of crystalline nicotinamide riboside chloride, and the solution was allowed to stand at ambient temperature while the product crystallized over the course of several hours. Using a Buchner funnel filtration apparatus, the crystals were filtered and washed with 200 mL of ice-cold methanol. The product was dried on the filter, open to the air, for 1.5 h, then under high vacuum (<[…]) at ambient temperature for 18 h. The yield was 157 g (34%) of a light yellow solid. The product contained 0.9 molar equivalents of methanol by ^1H NMR integration (i.e., nicotinamide riboside chloride ●0.9 methanol crystals). This residual methanol could not be removed by additional drying at <40° C. […]

Data set [2] is described as follows: Thermal decomposition of the crystals on heating under vacuum, confirmed by 1H NMR in D2O. The data set is classed as physicochemical. The method, then:
The crystalline nature of this product was confirmed by optical microscopy using polarized light (FIG. 5). A 50 mg portion of this material was dried under high vacuum (<1.0 mm Hg) and at ambient temperature for 48 h. […] The material completely decomposed, without melting, within 17 min at 100° C. at <1 mm Hg. (Decomposition was confirmed by ^1H NMR spectral analysis in D2O solution after the heating period.) In contrast, a sample could be heated at 80° C. for 1 h and <1 mm Hg with <3% decomposition. ^1H NMR (400 MHz, D2O) δ 9.63 (s, 1H, H2), 9.31 (d, 1H, J=5.9 Hz, H4), 9.01 (dd, 1H, J=8.0 Hz, 1.0 Hz, H6), 8.32 (dd, 1H, J=8.0 Hz, 5.9 Hz, H5), 6.29 (d, 1H, J=3.9 Hz, H1′), 4.55 (t, 1H, J=3.9 Hz, H2′), 4.50 (m, 1H, H4′), 4.38 (t, 1H, J=3.9 Hz, H3′), 4.08 (dd, 1H, J=12, 3 Hz, H5′), 3.93 (dd, 1H, J=12, 3, Hz, H5′); ^13C NMR (75 MHz, D2O) δ 165.8 (C7), 145.6 (C6), 142.6 (C4), 140.4 (C2), 133.9 (C3), 128.4 (C5), 99.9 (C1′), 87.6 (C4′), 77.4 (C2′), 69.7 (C3′), 60.1 (C5′); IR (cm−1) 3299, 1700, 1398, 1080, 982, 887, 795 (see FIG. 8). XRPD (degrees) 14.2, 17.1, 20.5, 22.7, 23.8, 25.1, 26.8, 34.2 X-ray powder diffraction (XRPD) data are included as FIG. 6. The XRPD serves as a fingerprint for the crystalline form of nicotinamide riboside chloride with only trace residual solvents present.

In data set [3] the test system is Human primary dermal fibroblasts (HDFa). Put plainly: NAD measurement in dermal fibroblasts treated with NR chloride (ADPR cyclase enzymatic assay, absorbance 405 nm). The data set is classed as cell-based. The following applies: for NAD levels: FIG. 16. The method, then: Human primary dermal fibroblasts derived from adult human skins (HDFa, Life technologies, Grand Island, NY, Passage 2-4) were grown in Medium 106 (Life Technologies) supplemented with Low Serum Growth Supplement (LSGS) (Life Technologies) and seeded in 12-well plates with density at 2×10^5 cells per well and 1 ml of culture medium in each well.
Stock solution of NR chloride (MW: 322.742, GSK3002633B) was prepared freshly in water at 100 mM. Cells were treated with NR chloride at different concentrations as shown in […] for 6 and 24 hrs, washed twice with PBS containing 5 mM EDTA, and then subject to Nicotinamide adenine dinucleotide (NAD) measurement. In brief, acetonitrile (ACN) lysis buffer (Ammonium Acetate (50 mM) and 90% acetonitrile) was added to each well (200 μl/well) to lyse the cells at RT for 5-10 mins by gently rotating on a culture plate shaker at a low speed. Enzyme master mix (300 μM of 5-Amino-(3,4′-bipyridin)-6(1H)-one (Inamrinone) (Sigma-Aldrich), a substrate for ADP ribosyl cyclase (ADPR cyclase)) and 30 nM ADPR Cyclase (Sigma, St. Louis, Mont.), in 75 mM HEPES pH7 buffer (Life Technologies)) was added to the lysed cells (400 μl of enzyme master mix/well). Enzymatic reaction was incubated at RT for ˜30 min. At the end of incubation, the supernatant (200 μl) of the reaction solution from each well was transferred to each well of a 96-well plate and absorbance was read twice in the 96-well plate at 405 nm using a plate reader (Spectra Maxplus, Molecular Devices, Sunnyvale, Calif.). A mixture of enzyme master mix and ACN extraction solution at 2:1 ratio was used as a blank reference.
Isolated, chemically-pure NAD (Sigma) was used as a positive control. Other NAD assays are known in the art or otherwise publically available as a kit (see, e.g., Neubert, D., et al., Biochim. Biophys. Acta, 1964, 92, 610-12; Emanuelli, M., et al. J. Chromatog. B. 676, 13-18; and NAD/NADH Cell-Based Assay Kit by Cayman Chemical).

Take `NC(=O)c1ccc[n+]([C@@H]2O[C@H](CO)[C@@H](O)[C@H]2O)c1.[Cl-]` [Example 3, 3-carbamoyl-1-((2R,3R,4S,5R)-3,4-dihydroxy-5-(hydroxymethyl)tetrahydrofuran-2-yl)pyridin-1-ium chloride]: the “behaviour on the filter under ambient conditions” value in data set [1] is recorded as “could be filtered under ambient conditions while remaining free-flowing”.
Take `NC(=O)c1ccc[n+]([C@@H]2O[C@H](CO)[C@@H](O)[C@H]2O)c1.[Cl-]` [Example 4, nicotinamide riboside chloride]: the “time to complete decomposition, without melting” value in data set [2] (100° C. at <1 mm Hg) is given as at most 17 min. In addition, the “resistance to decomposition upon heating” value in data set [2] (compared with amorphous forms of nicotinamide riboside) is on record as “far more resistant to decomposition upon heating than amorphous forms”. In data set [2] (heated at 80° C. for 1 h and <1 mm Hg), this compound returned a decomposition of under 3%.
As to `NC(=O)c1ccc[n+]([C@@H]2O[C@H](CO)[C@@H](O)[C@H]2O)c1.[Cl-]` [NR chloride, nicotinamide riboside chloride], the NAD levels result in data set [3] (6 hrs treatment) and in data set [3] (24 hrs treatment) was “dose-dependently increased NAD levels” throughout. In addition, the “intracellular NAD levels” value in data set [3] (FIG. 16, time not given) is “dose-dependently increases intracellular NAD levels”.
